In the Kinase Knowledgebase extract (Sharma et al. 2016):
One block for each compound: values may come before it.

Experiments:
[1] = target: PIK3CA (human), P42336 [E545K]; assay: Assessment of PIK3CA Kinase (E545K) Activity
[2] = target: PIK3CA (human), P42336 [H1047R]; assay: Assessment of PIK3CA Kinase (H1047R) Activity
[3] = target: EGFR (human), P00533 [WT]
CDK2 (human) [4] = target: CDK2 (human) (UniProt P24941); assay: Enzyme Assay
CDK2 (human) [5] = target: CDK2 (human) (UniProt P24941); assay: Enzyme Assay; remark: listed apart in the source
EGFR (human) [6] = target: EGFR (human) (UniProt P00533); assay: Assessment of EGFR Kinase Activity
CDK2 [7] = target: CDK2 (UniProt P24941); assay: Enzyme Assay
CDK2 [8] = target: CDK2 (UniProt P24941); assay: Enzyme Assay; remark: listed apart in the source
[9] = target: PIK3CD (Human), O00329 [Inhibition of PIK3CG Kinase Activity]; assay: Enzyme Assay
PIK3CA (human) [10] = target: PIK3CA (human) (UniProt P42336); assay: Cellular Inhibition of PIK3CA Kinase in MDA-MB-453 Cells
[11] = target: PIK3CA (human), P42336 [Antiproliferation of MB-MDA-361 Cells with PI3KCA Mutation]; assay: Antiproliferation of MB-MDA-361 Cells with PI3KCA Mutation; conditions: mda-mb-361
[12] = target: PIK3CA (human), P42336 [Antiproliferation of PC3MM2 Cells with PIK3CA Mutation]; assay: Antiproliferation of PC3MM2 Cells with PIK3CA Mutation
EGFR (human) [13] = target: EGFR (human) (UniProt P00533)
EGFR (human) [14] = target: EGFR (human) (UniProt P00533); conditions: h1975
EGFR (human) [15] = target: EGFR (human) (UniProt P00533); conditions: cal-27
EGFR (human) [16] = target: EGFR (human) (UniProt P00533); remark: listed apart in the source
EGFR (human) [17] = target: EGFR (human) (UniProt P00533); conditions: geo
EGFR (human) [18] = target: EGFR (human) (UniProt P00533); conditions: pc-9
EGFR (human) [19] = target: EGFR (human) (UniProt P00533); conditions: geo; remark: listed apart in the source
EGFR (human) [20] = target: EGFR (human) (UniProt P00533); remark: listed apart in the source
[21] = target: PIK3CA (human), P42336 [H1047R]; assay: Assessment of PIK3CA(H1047R) Dependent Antiproliferative Activity in KPL-4 Cells
EGFR (human) [22] = target: EGFR (human) (UniProt P00533); remark: listed apart in the source
[23] = target: EGFR (human), P00533 [T790M]; conditions: h1975
PIK3CA (human) [24] = target: PIK3CA (human) (UniProt P42336); assay: Assessment of Cell Proliferation of MDA-361 Cells
PIK3CA (human) [25] = target: PIK3CA (human) (UniProt P42336); assay: Assessment of PIK3CA Kinase Activity by AlphaScreen Assay
[26] = target: EGFR (Human), P00533 [T790M/L858R]
[27] = target: EGFR (human), P00533 [WT]; remark: listed apart in the source
EGFR (human) [28] = target: EGFR (human) (UniProt P00533); remark: listed apart in the source
PIK3CG;PIK3CA (human) = PIK3CG;PIK3CA (human) (UniProt P48736); assay: Inhibition of PIK3CG/PIK3CA Kinase Activity
EGFR (human) [29] = target: EGFR (human) (UniProt P00533); remark: listed apart in the source
MAPK14 (human) = MAPK14 (human) (UniProt Q16539); assay: Assessement of MAPK14 Kinase Activity
ROCK2 (human) [30] = target: ROCK2 (human) (UniProt O75116); assay: Inhibition of ROCK2 Kinase Activity
ROCK2 (human) [31] = target: ROCK2 (human) (UniProt O75116); assay: Inhibition of ROCK2 Kinase Activity (MLSCN Assay)
[32] = target: EGFR (human), P00533 [WT]; remark: listed apart in the source
EGFR (human) [33] = target: EGFR (human) (UniProt P00533); conditions: a431

Sequence of EGFR (human), P00533 [WT] (P00533 whole entry, looked up): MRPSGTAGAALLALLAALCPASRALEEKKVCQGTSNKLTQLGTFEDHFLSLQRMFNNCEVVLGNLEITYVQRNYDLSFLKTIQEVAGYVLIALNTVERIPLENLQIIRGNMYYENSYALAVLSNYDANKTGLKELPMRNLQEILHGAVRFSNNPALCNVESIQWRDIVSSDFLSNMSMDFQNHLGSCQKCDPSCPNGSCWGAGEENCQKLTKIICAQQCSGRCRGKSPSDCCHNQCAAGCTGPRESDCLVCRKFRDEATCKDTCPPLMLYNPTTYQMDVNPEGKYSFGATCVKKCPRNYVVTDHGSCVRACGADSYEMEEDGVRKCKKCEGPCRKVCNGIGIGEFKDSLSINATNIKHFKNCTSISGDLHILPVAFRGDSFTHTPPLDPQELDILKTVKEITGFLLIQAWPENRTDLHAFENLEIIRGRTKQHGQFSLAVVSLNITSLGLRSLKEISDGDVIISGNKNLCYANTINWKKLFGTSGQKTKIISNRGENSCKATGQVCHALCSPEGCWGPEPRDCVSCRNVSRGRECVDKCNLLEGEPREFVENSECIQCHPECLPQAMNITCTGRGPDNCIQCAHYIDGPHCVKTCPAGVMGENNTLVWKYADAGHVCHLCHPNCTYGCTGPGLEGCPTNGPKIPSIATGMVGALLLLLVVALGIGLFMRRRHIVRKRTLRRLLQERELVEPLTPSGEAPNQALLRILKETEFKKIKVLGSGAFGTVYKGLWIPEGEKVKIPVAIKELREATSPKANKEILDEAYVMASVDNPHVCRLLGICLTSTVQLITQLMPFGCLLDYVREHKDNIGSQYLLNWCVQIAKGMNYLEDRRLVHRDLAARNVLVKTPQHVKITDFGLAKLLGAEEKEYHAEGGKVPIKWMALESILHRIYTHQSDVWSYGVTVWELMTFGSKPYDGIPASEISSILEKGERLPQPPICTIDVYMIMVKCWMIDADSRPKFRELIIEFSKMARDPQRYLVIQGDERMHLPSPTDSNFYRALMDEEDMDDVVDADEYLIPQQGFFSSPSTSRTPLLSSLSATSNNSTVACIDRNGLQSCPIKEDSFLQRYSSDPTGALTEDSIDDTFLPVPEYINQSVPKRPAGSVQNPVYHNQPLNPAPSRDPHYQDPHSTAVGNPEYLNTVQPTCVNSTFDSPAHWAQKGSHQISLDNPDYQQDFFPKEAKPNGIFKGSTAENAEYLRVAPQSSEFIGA
Sequence of EGFR (human) (P00533 whole entry, looked up): as above
Sequence of PIK3CA (human) (P42336 whole entry, looked up): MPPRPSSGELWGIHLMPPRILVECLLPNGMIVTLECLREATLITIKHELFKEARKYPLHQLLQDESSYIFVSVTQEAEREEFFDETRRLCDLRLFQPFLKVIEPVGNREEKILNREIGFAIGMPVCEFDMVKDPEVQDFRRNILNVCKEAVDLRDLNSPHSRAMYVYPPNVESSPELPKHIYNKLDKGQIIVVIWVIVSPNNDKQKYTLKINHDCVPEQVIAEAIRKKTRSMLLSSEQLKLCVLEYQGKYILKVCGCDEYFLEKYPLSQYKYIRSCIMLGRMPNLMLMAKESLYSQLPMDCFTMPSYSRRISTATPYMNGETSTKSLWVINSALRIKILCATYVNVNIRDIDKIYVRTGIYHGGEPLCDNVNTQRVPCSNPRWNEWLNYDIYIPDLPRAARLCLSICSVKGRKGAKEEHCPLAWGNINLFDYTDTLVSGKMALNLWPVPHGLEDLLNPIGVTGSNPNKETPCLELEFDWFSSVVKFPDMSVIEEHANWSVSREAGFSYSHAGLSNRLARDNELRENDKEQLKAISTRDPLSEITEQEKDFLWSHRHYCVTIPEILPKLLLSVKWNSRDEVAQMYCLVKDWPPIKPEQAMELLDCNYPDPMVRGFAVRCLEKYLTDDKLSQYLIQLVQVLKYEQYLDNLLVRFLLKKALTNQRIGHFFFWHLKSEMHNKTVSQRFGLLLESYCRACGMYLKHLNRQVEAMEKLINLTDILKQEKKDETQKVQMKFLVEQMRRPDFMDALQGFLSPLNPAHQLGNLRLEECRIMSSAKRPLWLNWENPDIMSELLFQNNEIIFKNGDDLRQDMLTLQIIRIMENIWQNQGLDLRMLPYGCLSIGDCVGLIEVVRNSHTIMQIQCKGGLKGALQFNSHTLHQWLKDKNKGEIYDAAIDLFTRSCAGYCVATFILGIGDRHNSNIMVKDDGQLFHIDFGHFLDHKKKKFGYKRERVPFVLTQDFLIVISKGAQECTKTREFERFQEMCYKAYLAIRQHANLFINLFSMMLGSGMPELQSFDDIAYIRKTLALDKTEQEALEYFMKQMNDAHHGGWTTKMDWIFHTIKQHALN
Sequence of ROCK2 (human) (O75116 whole entry, looked up): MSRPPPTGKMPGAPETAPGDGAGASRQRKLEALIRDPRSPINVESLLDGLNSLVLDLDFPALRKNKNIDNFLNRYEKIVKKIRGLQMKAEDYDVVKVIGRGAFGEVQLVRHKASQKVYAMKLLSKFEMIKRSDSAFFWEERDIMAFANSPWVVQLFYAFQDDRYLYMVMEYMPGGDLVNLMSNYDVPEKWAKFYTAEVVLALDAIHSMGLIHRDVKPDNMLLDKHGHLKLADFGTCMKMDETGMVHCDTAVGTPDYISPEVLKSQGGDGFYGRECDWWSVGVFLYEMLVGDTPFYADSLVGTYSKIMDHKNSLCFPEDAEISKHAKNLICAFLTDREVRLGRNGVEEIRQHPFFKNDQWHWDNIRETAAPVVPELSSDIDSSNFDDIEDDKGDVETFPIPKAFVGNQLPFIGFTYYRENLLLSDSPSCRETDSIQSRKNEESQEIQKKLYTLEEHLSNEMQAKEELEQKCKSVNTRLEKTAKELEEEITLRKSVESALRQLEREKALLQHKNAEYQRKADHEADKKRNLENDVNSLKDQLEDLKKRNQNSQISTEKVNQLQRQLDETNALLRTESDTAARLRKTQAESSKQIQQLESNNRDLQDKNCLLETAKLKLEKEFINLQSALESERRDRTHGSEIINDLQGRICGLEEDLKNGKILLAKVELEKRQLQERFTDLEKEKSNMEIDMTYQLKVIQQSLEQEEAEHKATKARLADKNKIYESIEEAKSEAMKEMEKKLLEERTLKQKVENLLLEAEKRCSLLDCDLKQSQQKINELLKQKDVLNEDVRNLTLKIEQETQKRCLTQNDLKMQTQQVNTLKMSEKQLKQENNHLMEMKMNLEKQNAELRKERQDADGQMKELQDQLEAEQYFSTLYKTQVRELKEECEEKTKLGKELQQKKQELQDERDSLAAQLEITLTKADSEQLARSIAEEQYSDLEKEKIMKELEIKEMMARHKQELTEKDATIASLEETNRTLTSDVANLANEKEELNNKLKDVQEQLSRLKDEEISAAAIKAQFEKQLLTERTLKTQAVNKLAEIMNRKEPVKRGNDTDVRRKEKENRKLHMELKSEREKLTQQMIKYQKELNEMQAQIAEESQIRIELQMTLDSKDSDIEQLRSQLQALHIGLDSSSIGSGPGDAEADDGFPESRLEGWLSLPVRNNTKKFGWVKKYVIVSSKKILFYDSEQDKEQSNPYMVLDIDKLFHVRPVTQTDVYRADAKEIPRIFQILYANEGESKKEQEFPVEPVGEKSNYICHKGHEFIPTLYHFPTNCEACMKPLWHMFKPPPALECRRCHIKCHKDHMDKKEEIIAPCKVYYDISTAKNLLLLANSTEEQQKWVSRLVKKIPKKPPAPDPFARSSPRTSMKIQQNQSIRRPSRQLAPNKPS
Sequence of PIK3CA (human), P42336 [H1047R] (P42336 whole entry H1047R, looked up): as the sequence (P42336 whole entry, looked up) above, with H1047R counted along it
Sequence of PIK3CA (human), P42336 [Antiproliferation of MB-MDA-361 Cells with PI3KCA Mutation] (P42336 whole entry, looked up, change not shown): as the sequence (P42336 whole entry, looked up) above
Sequence of PIK3CA (human), P42336 [Antiproliferation of PC3MM2 Cells with PIK3CA Mutation] (P42336 whole entry, looked up, change not shown): as the sequence (P42336 whole entry, looked up) above
Sequence of PIK3CA (human), P42336 [E545K] (P42336 whole entry E545K, looked up): as the sequence (P42336 whole entry, looked up) above, with E545K counted along it

Compound: COc1cc(F)c2[nH]c(-c3c(C)nn(C)c3C)c(/C=C3\Oc4ccc(NC(=O)Nc5ccc(C(=O)N(C)CCN(C)C)cc5)cc4C3=O)c2c1
IC50 [1]: 0.0003 µM
IC50 [2]: 0.0005 µM

Compound: COc1cc(N2CCN(C(C)=O)CC2)ccc1Nc1ncc(Cl)c(-c2c[nH]c3ccccc23)n1
IC50 [3]: 0.079 µM

Compound: O=C1Nc2ccc(Br)cc2/C1=C1/Nc2ccccc2C1=NO
IC50 (CDK2 (human) [4]): 0.46 µM
IC50 (CDK2 (human) [5]): 0.12 µM
IC50 (EGFR (human) [6]): > 100 µM

Compound: CN(C)CCOc1ccc(NC(=O)Nc2ccc(-c3nc(N4CCOCC4)nc(N4C5CCC4COC5)n3)cc2)cc1
IC50 [11]: < 0.03 µM
IC50 [12]: < 0.03 µM

Compound: CCOC(=O)[C@@H]1O[C@H]1C(=O)Nc1ccc2ncnc(Nc3cccc(Br)c3)c2c1
IC50 (EGFR (human) [13]): 0.0005 µM
IC50 (EGFR (human) [14]): 6.76 µM

Compound: Nc1ccccc1NC(=O)/C=C/c1cccc(-c2ccc3ncnc(Nc4ccc(OCc5cccc(F)c5)c(Cl)c4)c3c2)c1
IC50 (EGFR (human) [15]): > 16 µM

Compound: Cc1c(NC(=O)OC[C@@H]2COCCN2)cn2ncnc(Nc3ccc4c(cnn4Cc4cccc(F)c4)c3)c12
IC50 (EGFR (human) [16]): 0.022 µM
IC50 (EGFR (human) [17]): 0.9 µM
IC50 (EGFR (human) [18]): 0.34 µM
IC50 (EGFR (human) [19]): 0.75 µM
IC50 (EGFR (human) [20]): 0.02 µM

Compound: O=C(NCCN1CCCC1)c1cc2n(c1)CCc1c(NC(=O)c3ccccc3Cl)n[nH]c1-2
IC50 (EGFR (human) [22]): 7.87 µM

Compound: CC1CN(c2ccnc3ccc(-c4cnc(Cl)c(NS(C)(=O)=O)c4)cc23)CC(C)O1 (stereo not given)
Ki (PIK3CA (human) [25]): 0.0083 µM

Compound: C=CC(=O)Nc1cccc(N2C(=O)N(Cc3ccccc3)Cc3cnc(Nc4ccc(N5CCN(C)CC5)cc4OC)nc32)c1
IC50 [26]: 0.0007 µM

Compound: COc1ccccc1Cc1nc2ccc(-c3nn([C@H]4CC[C@H](N5CCN(C)CC5)CC4)c4ncnc(N)c34)cc2[nH]1
IC50 (EGFR (human) [28]): 0.058 µM

Compound: COc1cc2ncnc(NCc3ccc(F)c(Cl)c3)c2cc1OCCCCCCC(=O)NO
IC50 (EGFR (human) [29]): 0.072 µM

Compound: CCc1nc(-c2cccc(C)c2)c(-c2ccnc(N=S(=O)(c3ccccc3)C3CC3)c2)s1 (stereo not given)
IC50 (MAPK14 (human)): 0.78 µM

Compound: O=C(Nc1nc(-c2ccncc2)cs1)C1COc2ccccc2O1 (stereo not given)
IC50 (ROCK2 (human) [30]): 0.04 µM
IC50 (ROCK2 (human) [31]): < 0.003 µM

Compound: COc1cccc(Nc2ccnc(Nc3cccc(OC)c3)n2)c1
IC50 [32]: 7.7 µM

Compound: C#Cc1cccc(Nc2ncnc3[nH]c(Cc4ccc(Cl)cc4Cl)cc23)c1
IC50 (EGFR (human) [33]): 33.1 µM

Other lines, results leading:

IC50 (CDK2 [7]): 0.285 µM
IC50 (CDK2 [8]): 1.9 µM
Compound: O=c1ccc2cnc(Nc3ccc(N4CCCCC4)cc3)nc2n1C1CCCO1 (stereo not given)

IC50 [9]: < 0.001 µM
Compound: CCN1CCN(CC(=O)Nc2ccc(-c3cccc4c(=O)cc(N5CCOCC5)oc34)c3sc4ccccc4c23)CC1

IC50 (PIK3CA (human) [10]): 0.2 to 0.5 µM
Compound: CC(C)(Cc1ccccc1C1CCN(S(C)(=O)=O)CC1)Nc1nc(N2CCOCC2)nc(-n2c(C(F)F)nc3ccccc32)n1

IC50 [21]: 0.45 µM
Compound: Oc1cccc(-c2nc(N3CCOCC3)nc3c2CCN3c2cccnc2)c1

IC50 [23]: > 20 µM
Compound: O=C(CCN1CCOCC1)Nc1ccc2ncnc(Nc3cccc(Br)c3)c2c1

IC50 (PIK3CA (human) [24]): < 0.03 µM
Compound: CC(C)n1nnc2c(N3CCOCC3)nc(-c3ccc(NC(=O)Nc4ccc(CO)cc4)cc3)nc21

IC50 [27]: 0.002 µM
Compound: CN1CCN([C@H]2CC[C@H](n3nc(-c4ccc(Nc5nc6cccc(Cl)c6o5)cc4)c4c(N)ncnc43)CC2)CC1

IC50 (PIK3CG;PIK3CA (human)): 1.04 µM
Compound: C[C@H]1COCCN1c1cc(C2(S(C)(=O)=O)CC2)nc(-c2ccc(NC(=O)Nc3cnn(C)c3)cc2)n1
